Reference: patent US20210330659A1, “USE OF NICOTINAMIDE COMPOSITION IN PREPARATION OF DRUG FOR TREATING HAND-FOOT SKIN REACTION INDUCED BY SORAFENIB” (ZHEJIANG UNIVERSITY, priority 2018, published 2021)

What was measured:
[1] = system: keratin 1, keratin 10 and Loricrin in HaCaT cells; assay: mRNA levels of keratinization indicators in HaCaT cells given HUVEC conditioned medium; format: cell-based
Experimental: (§1) HUVEC cells were administrated with 15 μM sorafenib. After that, the cells and the culture medium were separately collected, and the culture medium is concentrated. […] HUVEC culture medium treated with sorafenib, as a conditioned medium, was applied to HaCaT cells, and the expression of SIRT1 in the cells was detected. […] After HUVEC cells with HB-EGF knocked out were constructed, the culture medium obtained after administrated with sorafenib was administrated to the HaCaT cells, and mRNA levels of the keratinization progress indicators, i.e., keratin 1, keratin 10 and Loricrin, were detected. […] The HUVEC culture medium added with sorafenib, as the conditioned medium, was applied to the HaCaT cells in which SIRT1 was knocked out, and the mRNA levels of the three keratins were detected.
In an in vitro cell experimental model, HUVEC cells were administered with 15 μM sorafenib alone, and 15 μM sorafenib together with 10 μM nicotinamide, respectively. After 24 hours, the culture medium was collected as a conditioned medium for HaCaT cells, and the HaCaT cells were collected 24 hours later for the detection of mRNA levels of three keratins.

[2] = system: HB-EGF protein in HUVEC cells; assay: Western blot of pro-HB-EGF in cell lysate and s-HB-EGF in culture medium of sorafenib-treated HUVEC cells; format: cell-based; settings: 15 μM sorafenib, FIG. 1A
Experimental: as §1

SIRT1 in HaCaT cells = assay: SIRT1 expression in HaCaT cells given sorafenib-treated HUVEC conditioned medium; format: cell-based; settings: HaCaT cells given sorafenib-treated HUVEC culture medium as conditioned medium, FIG. 1B
Experimental: as §1

[3] = patients treated with sorafenib; cited from earlier work

SMILES | mRNA levels of the three keratins (keratin 1, keratin 10, Loricrin) ([1]; HUVEC treated 24 h with 10 μM nicotinamide plus 15 μM sorafenib, medium applied to HaCaT for 24 h, compared with sorafenib alone, FIG. 2) | expression level of the HB-EGF protein in the cells (pro-HB-EGF, cell lysate) ([2]; HUVEC cells) | expression of HB-EGF protein in the culture medium (s-HB-EGF) ([2]; HUVEC culture medium, concentrated) | expression of SIRT1 in HaCaT cells (SIRT1 in HaCaT cells) | mRNA levels of keratin 1, keratin 10 and Loricrin ([1]; HaCaT cells given medium of sorafenib-treated HUVEC cells with HB-EGF knocked out, FIG. 1C) | mRNA levels of keratin 1, keratin 10 and Loricrin ([1]; SIRT1-knocked-out HaCaT cells given sorafenib-treated HUVEC conditioned medium, FIG. 1D) | prevalence of hand-foot skin reaction (HFSR) [3]
NC(=O)c1cccnc1 [nicotinamide, 3-pyridinecarboxamide] | significantly down-regulated |  |  |  |  |  | 
CNC(=O)c1cc(Oc2ccc(NC(=O)Nc3ccc(Cl)c(C(F)(F)F)c3)cc2)ccn1 [sorafenib] |  | down-regulated | increased | up-regulated | down-regulated | also down-regulated | up to 60%
